Data taken from patent publication US20160095867A1, “BET INHIBITION THERAPY FOR HEART DISEASE” (DANA-FARBER CANCER INSTITUTE, INC., priority 2013, published 2016).

Test system: NRVM
Assay: PE-mediated cardiomyocyte hypertrophy in NRVM (cell area measurement)
Assay type: cell-based, rat
Conditions: equimolar doses (500 nM), PE 100 μM, 48 hours
Procedure: NRVM were isolated from the hearts of 2 day old Sprague-Dawley rat pups (Charles River) and maintained under standard conditions as described (Haldar et al., 2010). The cells were differentially plated for 1.5 h in cell culture dishes to remove contaminating non-myocytes. Unless otherwise stated, NRVM were plated at a density of 10^5 cells/mL. Cells were initially plated in growth medium (DMEM supplemented with 5% FBS, 100 U/mL penicillin-streptomycin, and 2 mM L-glutamine) for 24-36 hours and maintained in serum-free media thereafter (DMEM supplemented with 0.1% BSA, 1% insulin-transferrin-selenium liquid media supplement (Sigma 13146), 100 U/mL penicillin-streptomycin, and 2 mM L-glutamine). Media was changed every 2-3 days. Prior to stimulation with agonists, NRVM were maintained in serum-free medium for 48-72 hours. For hypertrophic stimulation, NRVM were incubated with JQ1 versus DMSO at indicated concentrations for 6 h followed by stimulation with PE (100 μM) for indicated timepoints.
NRVM were plated on glass coverslips in 6-well dishes at a density of 10^5 cells/mL. After treatments, cells were briefly fixed in PBS containing 2% PFA, permeabilized with PBST/0.1% Triton X-100, and blocked in PBST/5% horse serum. Primary antibody was anti-sarcomeric α-actinin (Sigma A7811) at 1:800. Fluorophore-tagged anti-mouse secondary antibody (α-mouse Alexa 488 green) was used at 1:1000 dilution. Coverslips were mounted on glass slides with mounting media containing DAPI. Quantitation of cardiomyocyte cell surface area was performed on α-actinin-stained cardiomyocytes using fluorescent microscopy and NIH Image J software as previously described (Liang et al., 2001). Analysis consisted of at least 100 cardiomyocytes in 20-30 fields at 400× magnification. This process was replicated in a least three independent experiments, and the data were combined.

SMILES	inhibition of agonist-induced cardiomyocyte hypertrophy (cell area)
COc1cc(OC)c2c(=O)[nH]c(-c3cc(C)c(OCCO)c(C)c3)nc2c1 [RVX-208]	inhibition of agonist-induced cardiomyocyte hypertrophy was indeed a class effect
COc1cc2c(cc1-c1c(C)noc1C)ncc1[nH]c(=O)n([C@H](C)c3ccccn3)c12 [iBET-151]	inhibition of agonist-induced cardiomyocyte hypertrophy was indeed a class effect
CCNC(=O)C[C@@H]1N=C(c2ccc(Cl)cc2)c2cc(OC)ccc2-n2c(C)nnc21 [iBET]	inhibition of agonist-induced cardiomyocyte hypertrophy was indeed a class effect
